Assay results reported in US20100152188A1, “Novel Heterocyclic Compounds” (priority 2005, published 2010).

Legend:
[1] = tested on: HCT116; assay: Anti-cancer screen (MTT), HCT116; type: cell-based; settings: Homo sapiens, HCT-116, 48 hours with compound, tested at 0.01-100 µM
In short: (§1)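 MTT read-out at 570 nm after 48 h compound exposure (five concentrations, 0.01–100 µM, triplicate). Percent growth calculated against untreated control and a T0 plate read at time of compound addition, giving GI50, TGI and LC50.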

[2] = tested on: NCIH460, HCT116, MDAMB-231/U 251; assay: Anti-cancer screen, mean GI50 over the cell lines; type: cell-based; settings: in µM
In short: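 Growth was scored by MTT absorbance at 570 nm relative to control wells and a pre-treatment T0 reading. Compounds were tested at five final concentrations (0.01–100 µM, triplicate) for 48 h on NCIH460, HCT116 and U251 cells, each plated at 5000 cells/well 24 h before dosing.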

[3] = tested on: HDAC; assay: HDAC inhibition; type: biochemical; settings: for HDAC Inhibition 1 μM: compound at 1 μM; for HDAC Inhibition 10 μM: compound at 10 μM
[4] = tested on: NCIH460; assay: Anti-cancer screen (MTT), NCIH460; type: cell-based; settings: Homo sapiens, NCI-H460, 48 hours with compound, tested at 0.01-100 µM
In short: as §1

[5] = tested on: MDAMB-231/U 251; assay: Anti-cancer screen (MTT), MDAMB-231/U 251; type: cell-based; settings: for CC50: 48 h, read-out: MDAMB-231/U 251 LC50; for GI50 / IC (TGI): 48 hours with compound, MTT, tested at 0.01-100 µM
In short: as §1

SMILES: Nc1ccccc1NC(=O)Cc1csc(NC(=O)OCc2ccncc2)n1 [Example 24, Pyridin-4-ylmethyl(4-{2-[(2-aminophenyl)amino]-2-oxoethyl}-1,3-thiazol-2-yl)carbamate]
- GI50 [1]: > 100 µM
- IC (TGI) [1]: > 100 µM
- LC50 (concentration giving 50% net cell kill relative to T0) [1]: > 100 µM
- Mean GI50 [2]: >100
- HDAC Inhibition 1 μM [3]: 1.34
- HDAC Inhibition 10 μM [3]: 3.17
- GI50 [4]: > 100 µM
- IC (TGI) [4]: > 100 µM
- LC50 [4]: > 100 µM
- CC50 [5]: > 100 µM
- GI50 [5]: > 100 µM
- IC (TGI) [5]: > 100 µM

SMILES: O=C(Cc1csc(NC(=O)OCc2ccncc2)n1)NOCc1ccccc1 [Example 25, Pyridin-4-ylmethyl(4-{2-[(benzyloxy)amino]-2-oxoethyl}-1,3-thiazol-2-yl)carbamate]
- GI50 [1]: 65 µM
- IC (TGI) [1]: > 100 µM
- LC50 (concentration giving 50% net cell kill relative to T0) [1]: > 100 µM
- Mean GI50 [2]: 80.67
- HDAC Inhibition 1 μM [3]: −0.29
- HDAC Inhibition 10 μM [3]: 6.62
- GI50 [4]: 92 µM
- IC (TGI) [4]: > 100 µM
- LC50 [4]: > 100 µM
- CC50 [5]: > 100 µM
- GI50 [5]: 85 µM
- IC (TGI) [5]: > 100 µM

SMILES: O=C(NCc1ccc(C(=O)NO)cc1)OCc1ccsc1 [Example 27, 3-Thienylmethyl{4-[(hydroxyamino)carbonyl]benzyl}carbamate]
- GI50 [1]: 7 µM
- IC (TGI) [1]: 21 µM
- LC50 (concentration giving 50% net cell kill relative to T0) [1]: 72 µM
- Mean GI50 [2]: 24.9
- IC50 [3]: 580 nM
- HDAC Inhibition 1 μM [3]: 67.65
- HDAC Inhibition 10 μM [3]: 81.85
- GI50 [4]: 34 µM
- IC (TGI) [4]: 64 µM
- LC50 [4]: 100 µM
- CC50 [5]: > 100 µM
- GI50 [5]: > 100 µM
- IC (TGI) [5]: > 100 µM

SMILES: O=C(NCc1ccc(C(=O)NO)cc1)OCc1cccs1 [Example 28, 2-Thienylmethyl{4-[(hydroxyamino)carbonyl]benzyl}carbamate]
- GI50 [1]: 5 µM
- IC (TGI) [1]: 15 µM
- LC50 (concentration giving 50% net cell kill relative to T0) [1]: 62 µM
- Mean GI50 [2]: 13
- IC50 [3]: 123 nM
- HDAC Inhibition 1 μM [3]: 50.8
- HDAC Inhibition 10 μM [3]: 63.3
- GI50 [4]: 30 µM
- IC (TGI) [4]: 51 µM
- LC50 [4]: > 100 µM
- CC50 [5]: 70 µM
- GI50 [5]: 5 µM
- IC (TGI) [5]: 30 µM

SMILES: O=C(NCc1ccc(C(=O)NO)cc1)OCc1nc2ccccc2s1 [Example 30, 1,3-Benzothiazol-2-ylmethyl{4-[(hydroxyamino)carbonyl]benzyl}carbamate]
- GI50 [1]: 0.23 µM
- IC (TGI) [1]: 7 µM
- LC50 (concentration giving 50% net cell kill relative to T0) [1]: 61 µM
- Mean GI50 [2]: 0.3
- IC50 [3]: 140 nM
- HDAC Inhibition 1 μM [3]: 84
- HDAC Inhibition 10 μM [3]: 84.6
- GI50 [4]: 0.02 µM
- IC (TGI) [4]: 0.05 µM
- LC50 [4]: 73 µM
- CC50 [5]: > 100 µM
- GI50 [5]: 0.78 µM
- IC (TGI) [5]: > 100 µM

SMILES: O=C(NCc1ccc(C(=O)NO)cc1)OCc1nccs1 [Example 31, 1,3-Thiazol-2-ylmethyl{4-[(hydroxyamino)carbonyl]benzyl}carbamate]
- GI50 [1]: 0.02 µM
- IC (TGI) [1]: 0.97 µM
- LC50 (concentration giving 50% net cell kill relative to T0) [1]: 39 µM
- Mean GI50 [2]: 10.7
- IC50 [3]: 130 nM
- HDAC Inhibition 1 μM [3]: 82.6
- HDAC Inhibition 10 μM [3]: 87.4
- GI50 [4]: 0.02 µM
- IC (TGI) [4]: 0.9 µM
- LC50 [4]: 92 µM
- CC50 [5]: > 100 µM
- GI50 [5]: 32 µM
- IC (TGI) [5]: > 100 µM

SMILES: O=C(NCc1ccc(C(=O)NO)cc1)OCC1COc2ccccc2O1 (centres unmarked) [Example 32, 2,3-Dihydro-1,4-benzodioxin-2-ylmethyl {4-[(hydroxyamino)carbonyl]benzyl}carbamate]
- GI50 [1]: 5 µM
- IC (TGI) [1]: 25 µM
- LC50 (concentration giving 50% net cell kill relative to T0) [1]: > 100 µM
- Mean GI50 [2]: 7
- HDAC Inhibition 1 μM [3]: 78.12
- HDAC Inhibition 10 μM [3]: 92.67
- GI50 [4]: 5 µM
- IC (TGI) [4]: 42 µM
- LC50 [4]: 95 µM
- CC50 [5]: 80 µM
- GI50 [5]: 11 µM
- IC (TGI) [5]: 45 µM

SMILES: O=C(NCc1ccc(C(=O)NO)cc1)OCc1nc2ccccc2[nH]1 [Example 33, 1H-Benzimidazol-2-ylmethyl{4-[(hydroxyamino)carbonyl]benzyl}carbamate]
- GI50 [1]: 4.5 µM
- IC (TGI) [1]: 20 µM
- LC50 (concentration giving 50% net cell kill relative to T0) [1]: > 100 µM
- Mean GI50 [2]: 2.8
- IC50 [3]: 250 nM
- HDAC Inhibition 1 μM [3]: 82.77
- HDAC Inhibition 10 μM [3]: 92.11
- GI50 [4]: 1 µM
- IC (TGI) [4]: 68 µM
- LC50 [4]: > 100 µM
- CC50 [5]: 60 µM
- GI50 [5]: 3 µM
- IC (TGI) [5]: 8 µM

SMILES: O=C(NCc1ccc(C(=O)NO)cc1)OCn1nnc2ccccc21 [Example 34, 1H-1,2,3-Benzotriazol-1-ylmethyl{4-[(hydroxyamino)carbonyl]benzyl}carbamate]
- GI50 [1]: 60 µM
- IC (TGI) [1]: > 100 µM
- LC50 (concentration giving 50% net cell kill relative to T0) [1]: > 100 µM
- Mean GI50 [2]: 49.3
- HDAC Inhibition 1 μM [3]: 62.1
- HDAC Inhibition 10 μM [3]: 98.6
- GI50 [4]: 58 µM
- IC (TGI) [4]: > 100 µM
- LC50 [4]: > 100 µM
- CC50 [5]: > 100 µM
- GI50 [5]: 30 µM
- IC (TGI) [5]: > 100 µM

SMILES: O=C(NCc1ccc(C(=O)NO)cc1)OCc1ccnc2ccccc12 [Example 37, Quinolin-4-ylmethyl{4-[(hydroxyamino)carbonyl]benzyl}carbamate]
- GI50 [1]: 6 µM
- IC (TGI) [1]: 20 µM
- LC50 (concentration giving 50% net cell kill relative to T0) [1]: 65 µM
- Mean GI50 [2]: 13.3
- HDAC Inhibition 1 μM [3]: 67.04
- HDAC Inhibition 10 μM [3]: 85.01
- GI50 [4]: 30 µM
- IC (TGI) [4]: 58 µM
- LC50 [4]: 90 µM
- CC50 [5]: 95 µM
- GI50 [5]: 4 µM
- IC (TGI) [5]: 18 µM

SMILES: CNC(=O)c1ccc(CNC(=O)OCc2cccs2)cc1 [Example 40, 2-Thienylmethyl{4-[(methylamino)carbonyl]benzyl}carbamate]
- GI50 [1]: 100 µM
- IC (TGI) [1]: > 100 µM
- LC50 (concentration giving 50% net cell kill relative to T0) [1]: > 100 µM
- Mean GI50 [2]: >100
- HDAC Inhibition 1 μM [3]: −1.9
- HDAC Inhibition 10 μM [3]: 8.6
- GI50 [4]: > 100 µM
- IC (TGI) [4]: > 100 µM
- LC50 [4]: > 100 µM
- CC50 [5]: > 100 µM
- GI50 [5]: 14 µM
- IC (TGI) [5]: > 100 µM

SMILES: CONC(=O)c1ccc(CNC(=O)OCc2cccs2)cc1 [Example 43, 2-Thienylmethyl{4-[(methoxyamino)carbonyl]benzyl}carbamate]
- GI50 [1]: > 100 µM
- IC (TGI) [1]: > 100 µM
- LC50 (concentration giving 50% net cell kill relative to T0) [1]: > 100 µM
- Mean GI50 [2]: >100
- HDAC Inhibition 1 μM [3]: 1.9
- HDAC Inhibition 10 μM [3]: 8.10
- GI50 [4]: > 100 µM
- IC (TGI) [4]: > 100 µM
- LC50 [4]: > 100 µM
- CC50 [5]: > 100 µM
- GI50 [5]: > 100 µM
- IC (TGI) [5]: > 100 µM

SMILES: CN(O)C(=O)c1ccc(CNC(=O)OCc2c(F)cc(F)cc2F)cc1 [Example 45, 2,4,6-Trifluorobenzyl(4-{[hydroxy(methyl)amino]carbonyl}benzyl)carbamate]
- GI50 [1]: > 100 µM
- IC (TGI) [1]: > 100 µM
- LC50 (concentration giving 50% net cell kill relative to T0) [1]: > 100 µM
- Mean GI50 [2]: >100
- HDAC Inhibition 1 μM [3]: 4.28
- HDAC Inhibition 10 μM [3]: −0.76
- GI50 [4]: 90 µM
- IC (TGI) [4]: > 100 µM
- LC50 [4]: > 100 µM
- CC50 [5]: > 100 µM
- GI50 [5]: 2.5 µM
- IC (TGI) [5]: 65 µM

SMILES: CN(O)C(=O)c1ccc(CNC(=O)OCc2cccs2)cc1 [Example 46, 2-Thienylmethyl(4-{[hydroxy(methyl)amino]carbonyl}benzyl)carbamate]
- GI50 [1]: 88 µM
- IC (TGI) [1]: > 100 µM
- LC50 (concentration giving 50% net cell kill relative to T0) [1]: > 100 µM
- Mean GI50 [2]: 66
- HDAC Inhibition 1 μM [3]: −4.01
- HDAC Inhibition 10 μM [3]: −2.70
- GI50 [4]: 70 µM
- IC (TGI) [4]: > 100 µM
- LC50 [4]: > 100 µM
- CC50 [5]: > 100 µM
- GI50 [5]: 40 µM
- IC (TGI) [5]: 90 µM

SMILES: CN(O)C(=O)c1ccc(CNC(=O)OCc2c(F)c(F)c(F)c(F)c2F)cc1 [Example 47, Tentafluorobenzyl(4-{[hydroxy(methyl)amino]carbonyl}benzyl)carbamate]
- GI50 [1]: 52 µM
- IC (TGI) [1]: > 100 µM
- LC50 (concentration giving 50% net cell kill relative to T0) [1]: > 100 µM
- Mean GI50 [2]: 48.33
- HDAC Inhibition 1 μM [3]: −5.89
- HDAC Inhibition 10 μM [3]: −2.12
- GI50 [4]: 56 µM
- IC (TGI) [4]: > 100 µM
- LC50 [4]: > 100 µM
- CC50 [5]: > 100 µM
- GI50 [5]: 37 µM
- IC (TGI) [5]: 74 µM

SMILES: CON(C)C(=O)c1ccc(CNC(=O)OCc2cccs2)cc1 [Example 48, 2-Thienylmethyl(4-{[methoxy(methyl)amino]carbonyl}benzyl)carbamate]
- GI50 [1]: 4.3 µM
- IC (TGI) [1]: 9 µM
- LC50 (concentration giving 50% net cell kill relative to T0) [1]: 65 µM
- Mean GI50 [2]: 1.8
- HDAC Inhibition 1 μM [3]: 4.8
- HDAC Inhibition 10 μM [3]: 1.9
- GI50 [4]: 1 µM
- IC (TGI) [4]: 31 µM
- LC50 [4]: > 100 µM
- CC50 [5]: > 100 µM
- GI50 [5]: 0.03 µM
- IC (TGI) [5]: 57 µM

SMILES: O=C(NCc1ccc(C(=O)N2CCN(Cc3ccc4c(c3)OCO4)CC2)cc1)OCc1cccs1 [Example 52, 2-Thienylmethyl(4-{[4-(1,3-benzodioxol-5-ylmethyl)piperazin-1-yl]carbonyl}benzyl)carbamate]
- GI50 [1]: 0.4 µM
- IC (TGI) [1]: 5.8 µM
- LC50 (concentration giving 50% net cell kill relative to T0) [1]: > 100 µM
- Mean GI50 [2]: 0.6
- HDAC Inhibition 1 μM [3]: 2.2
- HDAC Inhibition 10 μM [3]: 4.1
- GI50 [4]: 0.04 µM
- IC (TGI) [4]: 0.5 µM
- LC50 [4]: > 100 µM
- CC50 [5]: > 100 µM
- GI50 [5]: 1.3 µM
- IC (TGI) [5]: > 100 µM
